Results on two compounds are retold here after article PMC6218659, “Structures of DPAGT1 Explain Glycosylation Disease Mechanisms and Advance TB Antibiotic Design” (Cell, 2018).

Each structure is given as a SMILES string. Numbering of substitutions follows the chain as printed. Converted amounts (≈) assume the structure as drawn. Structures can show the parent of a compound that is named as a salt.

Assay [1] addresses T1, DPAGT1 Leu168Pro (Homo sapiens, UniProt Q9H3H5, L168P).
T1 construct: combined with the LIC-adapted primers to amplify the complete DPAGT1 gene, including the desired mutations; 6xHis purification tag with TEV site (N, cleaved yes); made in house; host or cells: Spodoptera frugiperda Sf9 insect cells (baculovirus)
T1 sequence (Q9H3H5 1-408 L168P): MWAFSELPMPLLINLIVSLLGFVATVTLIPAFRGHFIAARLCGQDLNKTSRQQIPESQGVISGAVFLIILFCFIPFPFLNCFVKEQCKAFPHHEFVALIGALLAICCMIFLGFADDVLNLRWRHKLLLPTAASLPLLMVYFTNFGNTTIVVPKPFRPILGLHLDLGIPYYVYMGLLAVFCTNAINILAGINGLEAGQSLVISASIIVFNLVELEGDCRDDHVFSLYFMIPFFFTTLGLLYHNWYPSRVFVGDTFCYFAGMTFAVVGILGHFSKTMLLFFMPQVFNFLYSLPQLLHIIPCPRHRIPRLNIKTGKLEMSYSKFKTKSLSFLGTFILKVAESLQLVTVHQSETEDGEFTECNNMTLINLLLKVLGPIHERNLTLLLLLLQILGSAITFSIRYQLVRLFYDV
The experiment in a line: Thermostability assay (label free differential scanning fluorimetry). Format: binding, H. sapiens. The note with it: 50 μM compound. Here is the method: (§1) Samples with a volume of 40 μl were prepared containing 0.5 mg/ml protein and 50 μM compound or 5% DMSO in GFB. A glass capillary was dipped into each sample, with the capillary held horizontally to ensure that the capillary was full of the sample. The capillaries were placed on the capillary holder on the Nanotemper Prometheus. Technical triplicates of each sample were prepared, and each experiment was conducted with biological triplicates of each protein. PR.ThermControl software was used to run the experiment and analyse the data. A melting curve from 20 °C – 95 °C at 5 °C/min was performed. The minimum of the first derivative of the 330/350nm ratio was used to determine the Tm1/2.
Background: In DSF a fluorescence change marks the thermal transition of the protein.

Assay [2] deals with T2, DPAGT1 Arg301Cys (Homo sapiens, UniProt Q9H3H5, R301C).
T2 construct: combined with the LIC-adapted primers to amplify the complete DPAGT1 gene, including the desired mutations; 6xHis purification tag with TEV site (N, cleaved yes); made in house; host or cells: Spodoptera frugiperda Sf9 insect cells (baculovirus)
T2 sequence (Q9H3H5 1-408 R301C): T1 sequence (Q9H3H5 1-408 L168P) with P168L, R301C
Described as above. Format: binding, H. sapiens. The note with it: 50 μM compound. Here is the method: as §1

Assay [3] has as its target T3, DPAGT1 Tyr170Cys (Homo sapiens, UniProt Q9H3H5, Y170C).
T3 construct: combined with the LIC-adapted primers to amplify the complete DPAGT1 gene, including the desired mutations; 6xHis purification tag with TEV site (N, cleaved yes); made in house; host or cells: Spodoptera frugiperda Sf9 insect cells (baculovirus)
T3 sequence (Q9H3H5 1-408 Y170C): T1 sequence (Q9H3H5 1-408 L168P) with P168L, Y170C
Described as above. The assay is classed as binding, H. sapiens. Particulars: 50 μM compound. Here is the method:
as §1

Assay [4] has as its target T4, DPAGT1 Val264Gly (Homo sapiens, UniProt Q9H3H5, V264G).
T4 construct: H. sapiens DPAGT1 (1-408, Val264Gly, N-terminal 6 x HIS tag, TEV cleavage site); 6xHis purification tag with TEV site (N, cleaved yes); made in house; host or cells: Spodoptera frugiperda Sf9 insect cells (baculovirus)
T4 sequence (Q9H3H5 1-408 V264G): T1 sequence (Q9H3H5 1-408 L168P) with P168L, V264G
The description is as above. The note with it: 50 μM compound. Format: binding, H. sapiens. Here is the method:
as §1

Assay [5] has as its system Mtb-GFP. Format: cell-based, Mycobacterium tuberculosis.
The subject of assay [6] is P. aeruginosa ATCC27853. The experiment in a line: Micro-broth dilution and drop plate antimicrobial susceptibility test. Format: cell-based. Particulars: Pseudomonas aeruginosa. A general note: Broth dilution looks for growth in wells or tubes with falling amounts of substance.
Assay [7] concerns E. coli ATCC25922. The assay is described as above. The note with it: Escherichia coli. Format: cell-based.
The test system of assay [8] is S. aureus ATCC29219. The description is as above. The assay is classed as cell-based. The note with it: Staphylococcus aureus.

With `N[C@H]1[C@H](O[C@H]2O[C@H](CO)[C@@H](O)[C@H](O)[C@H]2N)O[C@H](C[C@@H](O)[C@H]2O[C@@H](n3ccc(=O)[nH]c3=O)[C@H](O)[C@@H]2O)[C@H](O)[C@@H]1O` [TUN, α-D-glucosamine-(1”-11')-tunicamyl uracil dihydrochloride], the “Thermostability (Tm1/2) with added compound” value came out at 84.0±0.2 °C in assay [1], 80.9±0.5 °C in assay [2], 83.1±0.8 °C in assay [3] and 82.6±0.1 °C in assay [4].
With `CCCCCCCC(=O)N[C@H]1[C@H](O[C@H]2O[C@H](CO)[C@@H](O)[C@H](O)[C@H]2NC(=O)CCCCCCC)O[C@H](C[C@@H](O)[C@H]2O[C@@H](n3ccc(=O)[nH]c3=O)[C@H](O)[C@@H]2O)[C@H](O)[C@@H]1O` [TUN-8,8, Di-N-octanoyl-tunicamycin], the “extracellular release of GFP (lysis)” value in assay [5] was “lytic effects”. In assay [6], this compound registered an IC50 of 46.6 µg/mL (≈ 56.9 µM), an MBC of more than 400 µg/mL and an MIC of 83 ± 29 µg/mL (≈ 101 µM). In assay [7], this compound showed an IC50 of 123 µg/mL (≈ 150 µM), an MBC of 400 µg/mL (≈ 488 µM) and an MIC of 330 ± 120 µg/mL (≈ 403 µM). For the same compound, in assay [8], it took 58.4 µg/mL (≈ 71.3 µM) to reach half-maximal inhibition (IC50), the MBC stood at 400 µg/mL (≈ 488 µM) and the MIC came to 170 ± 60 µg/mL (≈ 208 µM).

By IC50 is commonly meant the point on the concentration scale where inhibition reaches its midpoint. A higher IC50 goes with weaker potency in that assay. In general, MBC refers to the smallest concentration meeting the test's criterion for killing. A word on the MIC: it is the lowest concentration that inhibits growth of the organism. Lower therefore signals greater potency.
